Measurements: patent US9840494B2, “Quinazoline derivative” (Tianjin Hemay Oncology Pharmaceutical Co., Ltd., priority 2013, dated 2017)
Where two headings read alike, the source gives them in different places.

What was measured:
[1] = target: T1, EGFR (Homo sapiens, UniProt P00533); assay: Inhibitory effect on tyrosine kinase activity of EGFR; assay type: biochemical; conditions: EGFR 40 ng/ml, ATP 10 μM, 30 min
T1 construct: purchased Invitrogen Company PV3872
Method: EGFR: Invitrogen Company, Catalogue No. PV3872
pGT (poly(glutamic acid-tyrosine)): Sigma-Aldrich Company, Catalogue No. P0275
The assay method is briefly described as follows.
3.1.1 At 4° C., 96-well microtiter plate was coated with 0.2 mg/mL pGT (as the substrate of enzyme) dissolved in PBS (phosphate buffer) overnight. Unbound pGT was washed away with a washing solution (0.05% Tween −20 in PBS), and the plate was dried in the air at room temperature for 2 h.
3.1.2 The enzyme reaction was performed in 50 μl reaction system containing 50 mM HEPEs (N-(2-hydroxyethyl)piperazine-N′-2-ethanesulfonic acid), pH 7.5, 0.01% BRIJ-35 (polyoxyethylene lauryl ether), 10 mM MgCl2, 1 mM EGTA (ethylene glycol bis(2-aminoethyl ether)tetraacetic acid), with certain concentrations of ATP (adenosine triphosphate) and kinase, and proceeded for 30 min at room temperature. The phosphate group at the terminal of ATP can be transferred to tyrosine residues of pGT by kinase catalysis so as to phosphorylate the tyrosine residues.
3.1.3 A final concentration of 1% SDS (sodium dodecyl sulfate) was added to terminate the reaction. The phosphorylated tyrosine residues were identified using pY-20. HRP at the end of the antibody enabled TMB to take on color. Then equal amount of 2 N H2SO4 was added to terminate the reaction. OD value, which is positively correlated with the phosphorylation degree of tyrosine residues of pGT, was measured at 450 nm
3.2 The concentrations of the kinase and substrate ATP were determined with reference to the literature “Optimization of a LanthaScreen Kinase assay for EGFR (ErbB1)”(https://tools.lifetechnologies.com/content/sfs/manuals/EGFR_LanthaScreen_actity_Europium.pdf), published by Invitrogen Corporation. The selection criteria for the final concentrations are that the concentration of kinase enabling the yield of the product within the linear range of the detection system and the concentration of ATP approching Km (Michaelis constant) value.
3.3.1 An appropriate amount of a compound was dissolved in DMSO (dimethylsulfoxide) to prepare 2 mM stock solution. Then the stock solution was diluted with DMSO to obtain a working solution with a 50-fold concentration of the highest test concentration, and subjected to a 4-fold gradient dilution to obtain seven concentrations in total.
5 μl 10-fold concentration of ATP dissolved in H2O (the concentration of ATP in EGFR assay is 100 μM, and in Her2 assay is 400 μM) was added to initiate the enzyme reaction followed by reaction at room temperature for 30 min
The mean value of inhibition rate and SD (standard deviation) were determined by duplicate wells. A curve with the concentration of the compound as abscissa and being in logarithmic distribution and the mean value of inhibition rate as ordinate was plotted and fitted using four-parameter logistic function.

[2] = system: human epidermoid carcinoma cell line A431; assay: In vitro inhibitory action on human tumor cells, A431 (MTT); assay type: cell-based; conditions: MTT assay, usually 3 days, read-out: Inhibitory activity on human epidermoid cancer cell line A431 (IC50)
Method: Human epidermoid carcinoma cell line A431, human non-small cell lung cancer cell line HCC827, head and neck cancer cell lines Fadu and human pancreatic cancer cell line AsPC-1 were purchased from Cell Bank, Chinese Academy of Sciences.
3.2 Cell culture method: cells were cultured in the complete medium at 37° C. under 5% CO2 and saturated humidity until logarithmic growth phase, i.e., adherent cells substantially approach complete confluence, and then collected for subsequent assay. For the adherent cells, they were firstly digested with trypsin/EDTA to detach.
3.3 A certain number of cells were seeded into 96-well cell culture plates (hereinafter referred to as 96-well plates). […] Finally, total cellular protein in the wells was determined using SRB assay, or cell viability was determined with MTT assay.
3.3.1 The cell seeding concentration was determined by cell growth curve assay which completely simulates compound inhibition assay process. […]
3.4 Dilution and addition of compounds: the concentration of DMSO that can be tolerant by the cells was determined by DMSO tolerance assay, and thereby selecting the dilution and addition methods of compounds. The effects of different concentrations of DMSO on cell growth were determined by DMSO tolerance assay. […] Two methods are finally determined as follows. […]

T1 sequence (P00533 25-1210): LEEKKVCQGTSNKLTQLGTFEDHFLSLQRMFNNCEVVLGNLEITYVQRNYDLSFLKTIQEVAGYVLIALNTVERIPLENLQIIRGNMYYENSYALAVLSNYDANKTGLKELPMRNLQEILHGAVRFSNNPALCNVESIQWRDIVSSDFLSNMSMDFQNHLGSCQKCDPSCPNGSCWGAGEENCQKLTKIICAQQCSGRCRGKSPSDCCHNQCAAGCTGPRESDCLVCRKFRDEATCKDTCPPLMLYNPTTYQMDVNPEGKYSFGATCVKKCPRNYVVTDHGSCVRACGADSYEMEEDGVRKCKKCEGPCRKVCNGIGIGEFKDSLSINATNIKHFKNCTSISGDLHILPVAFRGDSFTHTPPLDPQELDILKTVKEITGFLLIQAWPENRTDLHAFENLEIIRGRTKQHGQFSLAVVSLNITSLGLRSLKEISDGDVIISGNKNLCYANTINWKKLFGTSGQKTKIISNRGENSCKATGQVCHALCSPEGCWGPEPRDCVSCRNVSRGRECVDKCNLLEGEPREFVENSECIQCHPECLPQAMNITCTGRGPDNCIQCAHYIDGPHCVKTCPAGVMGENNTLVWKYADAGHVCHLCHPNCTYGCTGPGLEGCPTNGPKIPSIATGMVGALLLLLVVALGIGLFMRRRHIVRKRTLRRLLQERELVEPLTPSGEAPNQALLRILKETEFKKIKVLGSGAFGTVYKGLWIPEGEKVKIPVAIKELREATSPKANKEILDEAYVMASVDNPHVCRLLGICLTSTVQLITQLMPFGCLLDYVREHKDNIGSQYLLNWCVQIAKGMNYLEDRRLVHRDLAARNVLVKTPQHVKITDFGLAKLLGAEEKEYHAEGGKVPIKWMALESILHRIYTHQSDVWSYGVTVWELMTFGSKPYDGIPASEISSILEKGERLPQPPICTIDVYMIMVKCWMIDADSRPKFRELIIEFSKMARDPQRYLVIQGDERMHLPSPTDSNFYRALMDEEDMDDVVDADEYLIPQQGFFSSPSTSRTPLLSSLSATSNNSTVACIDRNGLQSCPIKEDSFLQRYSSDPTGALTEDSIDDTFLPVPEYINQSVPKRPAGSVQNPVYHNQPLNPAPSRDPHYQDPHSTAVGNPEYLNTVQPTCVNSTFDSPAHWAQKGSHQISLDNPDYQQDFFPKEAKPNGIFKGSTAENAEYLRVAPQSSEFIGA

In the case of `COCCOc1cc2ncnc(Nc3ccc(F)c(Cl)c3)c2cc1NC(=O)C=C1CCN(CCOC)CC1` [Compound 1, N-[4-(3-chloro-4-fluorophenylamino)-7-(2-methoxyethoxy)quinazolin-6-yl]-2-[1-(2-methoxyethyl)piperidin-4-ylidene]acetamide], the IC50 [1] is reported as 0.4 nM and the IC50 ([2]; Homo sapiens, A-431, 72 h) is reported as 125 nM.
Work on `COCCOc1cc2ncnc(Nc3ccc(F)c(Cl)c3)c2cc1NC(=O)C=C1CCN(CCOC)CC1.Cl.Cl` [Compound 2, N-[4-(3-chloro-4-fluorophenylamino)-7-(2-methoxyethoxy)quinazolin-6yl]-2-[1-(2-methoxyethyl)piperidin-4-ylidene]acetamide dihydrochloride] yielded an IC50 [1] of 0.5 nM.
Compound `COCCOc1cc2ncnc(Nc3ccc(F)c(Cl)c3)c2cc1NC(=O)C=C1CCN(CCOC)CC1.CS(=O)(=O)O` [Compound 3, N-[4-(3-chloro-4-fluorophenylamino)-7-(2-methoxyethoxy)quinazolin-6-yl]-2-[1-(2-methoxyethyl)piperidin-4-ylidene]acetamide dimethylsulfonate] has an IC50 [1] of 0.4 nM and an IC50 [2] of 138 nM.
